Patent US11173145B2, “Compounds useful as inhibitors of indoleamine 2,3-dioxygenase and/or tryptophan dioxygenase” (Board of Regents, The University of Texas System, priority 2017, dated 2021)

Tests used:
[1] = biological target: T1, mouse IDO1 (Mus musculus, UniProt P28776); test: Mouse IDO1 cell-based assay (PANC02 cells, mouse IFNgamma-induced, N-formylkynurenine/L-tryptophan by RFMS); conditions: 30 ng/mL mouse IFNgamma, 48 hours
T1 construct: The murine PANC02 pancreatic ductal adenocarcinoma cell line was routinely maintained in DMEM media; endogenous in cells; host or cells: PANC02 murine pancreatic ductal adenocarcinoma cells, induced with mouse IFNgamma

[2] = biological target: T2, IDO1 (Homo sapiens, UniProt P14902); test: IDO1 cell-based assay (HeLa cells, IFNgamma-induced, N-formylkynurenine/L-tryptophan by RFMS); conditions: 10 ng/mL IFNgamma, 24 hours
T2 construct: endogenous in cells; host or cells: HeLa cells (ATCC), IFNgamma-induced
Outline: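 HeLa cells stimulated with 10 ng/mL IFNgamma and exposed to compound (0.5% DMSO final) for 24 h at 37 °C. Conditioned media deproteinized, then N-formylkynurenine and L-tryptophan quantified by RapidFire MS with deuterated tryptophan internal standard; IC50 by curve fitting. Viability checked by CellTiter-Glo.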

T1 sequence (P28776 whole entry): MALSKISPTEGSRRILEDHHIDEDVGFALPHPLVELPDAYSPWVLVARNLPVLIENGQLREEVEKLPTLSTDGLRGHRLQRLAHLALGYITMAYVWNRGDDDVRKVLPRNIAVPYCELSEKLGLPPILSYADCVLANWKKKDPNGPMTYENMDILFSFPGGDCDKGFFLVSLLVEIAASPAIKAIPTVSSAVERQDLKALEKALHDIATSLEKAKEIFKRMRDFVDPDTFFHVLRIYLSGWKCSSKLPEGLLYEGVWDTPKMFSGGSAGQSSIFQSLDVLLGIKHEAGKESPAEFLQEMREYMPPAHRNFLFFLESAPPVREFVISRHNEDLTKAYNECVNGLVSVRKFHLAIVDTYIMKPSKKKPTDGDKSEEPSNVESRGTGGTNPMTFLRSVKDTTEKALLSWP
T2 sequence (P14902 whole entry): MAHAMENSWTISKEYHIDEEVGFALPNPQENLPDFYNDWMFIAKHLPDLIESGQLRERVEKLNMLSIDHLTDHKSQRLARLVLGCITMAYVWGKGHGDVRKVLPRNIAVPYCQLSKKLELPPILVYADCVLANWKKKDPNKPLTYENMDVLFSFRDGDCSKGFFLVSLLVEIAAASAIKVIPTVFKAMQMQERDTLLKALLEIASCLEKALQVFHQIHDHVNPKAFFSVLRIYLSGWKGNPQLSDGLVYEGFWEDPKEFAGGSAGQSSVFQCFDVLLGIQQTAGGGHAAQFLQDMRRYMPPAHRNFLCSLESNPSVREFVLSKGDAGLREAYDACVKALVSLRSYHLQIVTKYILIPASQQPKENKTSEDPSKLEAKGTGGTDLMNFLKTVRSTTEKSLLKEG

| SMILES | IC50 [1] | IC50 [2] |
| --- | --- | --- |
| CCC(NC(=O)c1ccc(Cl)cc1)[C@H]1[C@@H]2C[C@@H](n3nc4cc(F)cc(F)c4n3)C[C@@H]21 (stereo partly drawn) [Compound 213, 4-chloro-N-(1-((1R,3s,5S,6r)-3-(4,6-difluoro-2H-benzo[d][1,2,3]triazol-2-yl)bicyclo[3.1.0]hexan-6-yl)propyl)benzamide] | 500 to 2000 nM | < 200 nM |
| CCC(NC(=O)c1ccc(Cl)cc1)[C@H]1[C@@H]2C[C@@H](n3ccc4ncnc-4c3)C[C@@H]21 (stereo partly drawn) [Compound 198, N-(1-((1R,3s,5S,6r)-3-(5H-imidazo[4,5-c]pyridin-5-yl)bicyclo[3.1.0]hexan-6-yl)propyl)-4-chlorobenzamide] | 500 to 2000 nM | < 200 nM |
| O=C(NCc1ccc(Cl)cc1)[C@@H]1[C@@H]2CN(c3ncnc4ccc(F)cc34)C[C@@H]21 [Compound 249, (1R,5S,6s)-N-(4-chlorobenzyl)-3-(6-fluoroquinazolin-4-yl)-3-azabicyclo[3.1.0]hexane-6-carboxamide] | > 5000 nM | > 5000 nM |
| CCc1cn([C@@H]2C[C@@H]3[C@H](C2)[C@H]3C(CC)NC(=O)c2ccc(Cl)cc2)nn1 (stereo partly drawn) [Compound 167, 4-chloro-N-(1-((1R,3s,5S,6r)-3-(4-ethyl-1H-1,2,3-triazol-1-yl)bicyclo[3.1.0]hexan-6-yl)propyl)benzamide] | < 500 nM | < 200 nM |
| CCC(NC(=O)c1ccc(Cl)cc1)[C@H]1[C@@H]2C[C@@H](n3c(=O)[nH]c4ccccc43)C[C@@H]21 (stereo partly drawn) [Compound 180, 4-chloro-N-(1-((1R,3s,5S,6r)-3-(2-oxo-2,3-dihydro-1H-benzo[d]imidazol-1-yl)bicyclo[3.1.0]hexan-6-yl)propyl)benzamide] | 500 to 2000 nM | 200 to 2000 nM |
| CCC(NC(=O)c1ccc(Cl)cc1)[C@H]1[C@@H]2C[C@@H](NC(C(=O)O)c3ccccc3)C[C@@H]21 (stereo partly drawn) [Compound 217, 2-(((1R,3s,5S,6r)-6-(1-(4-chlorobenzamido)propyl)bicyclo[3.1.0]hexan-3-yl)amino)-2-phenylacetic acid] | > 5000 nM | > 5000 nM |
| CCC(NC(=O)c1ccc(Cl)cc1)[C@H]1[C@@H]2C[C@@H](Oc3ncnc4cc(Cl)ccc34)C[C@@H]21 (stereo partly drawn) [Compound 253, 4-chloro-N-(1-((1R,3s,5S,6r)-3-((7-chloroquinazolin-4-yl)oxy)bicyclo[3.1.0]hexan-6-yl)propyl)benzamide] | 2000 to 5000 nM | < 200 nM |
| CCC(NC(=O)c1ccc(Cl)cc1)[C@H]1[C@@H]2C[C@H](n3cc(COCCOC)nn3)C[C@@H]21 (stereo partly drawn) [Compound 215, 4-chloro-N-(1-((1R,3r,5S,6r)-3-(4-((2-methoxyethoxy)methyl)-1H-1,2,3-triazol-1-yl)bicyclo[3.1.0]hexan-6-yl)propyl)benzamide] | 500 to 2000 nM | 200 to 2000 nM |
| CCC(NC(=O)c1ccc(Cl)cc1)[C@H]1[C@@H]2C[C@@H](n3nncc3C3CC3)C[C@@H]21 (stereo partly drawn) [Compound 153, 4-chloro-N-(1-((1R,3s,5S,6r)-3-(5-cyclopropyl-1H-1,2,3-triazol-1-yl)bicyclo[3.1.0]hexan-6-yl)propyl)benzamide] | < 500 nM | < 200 nM |
| CCC(NC(=O)c1ccc(Cl)cc1)[C@H]1[C@@H]2C[C@H](n3cc(CO)nn3)C[C@@H]21 (stereo partly drawn) [Compound 187, 4-chloro-N-(1-((1R,3r,5S,6r)-3-(4-(hydroxymethyl)-1H-1,2,3-triazol-1-yl)bicyclo[3.1.0]hexan-6-yl)propyl)benzamide] | 2000 to 5000 nM | 200 to 2000 nM |
| CCC(NC(=O)c1ccc(Cl)cc1)[C@H]1[C@@H]2C[C@@H](n3ncc(-c4ccccc4)n3)C[C@@H]21 (stereo partly drawn) [Compound 204, 4-chloro-N-(1-((1R,3s,5S,6r)-3-(4-phenyl-2H-1,2,3-triazol-2-yl)bicyclo[3.1.0]hexan-6-yl)propyl)benzamide] | 500 to 2000 nM | < 200 nM |
| CCC(NC(=O)c1ccc(Cl)cc1)[C@H]1[C@@H]2C[C@@H](n3cc(N)nn3)C[C@@H]21 (stereo partly drawn) [Compound 239, N-(1-((1R,3s,5S,6r)-3-(4-amino-1H-1,2,3-triazol-1-yl)bicyclo[3.1.0]hexan-6-yl)propyl)-4-chlorobenzamide] | > 5000 nM | 2000 to 5000 nM |
| CCC(NC(=O)c1ccc(Cl)cc1)[C@H]1[C@@H]2C[C@@H](n3cc(C4CNC4)nn3)C[C@@H]21 (stereo partly drawn) [Compound 237, N-(1-((1R,3s,5S,6r)-3-(4-(azetidin-3-yl)-1H-1,2,3-triazol-1-yl)bicyclo[3.1.0]hexan-6-yl)propyl)-4-chlorobenzamide] | > 5000 nM | > 5000 nM |
| CCC(NC(=O)c1ccc(Cl)cc1)[C@H]1[C@@H]2C[C@@H](NC(C(=O)NC)c3ccccc3)C[C@@H]21 (stereo partly drawn) [Compound 224, 4-chloro-N-(1-((1R,3s,5S,6r)-3-((2-(methylamino)-2-oxo-1-phenylethyl)amino)bicyclo[3.1.0]hexan-6-yl)propyl)benzamide] | > 5000 nM | 2000 to 5000 nM |
| CCC(NC(=O)c1ccc(Cl)cc1)[C@H]1[C@@H]2C[C@@H](n3cc(N4C(=O)c5ccccc5C4=O)nn3)C[C@@H]21 (stereo partly drawn) [Compound 232, 4-chloro-N-(1-((1R,3s,5S,6r)-3-(4-(1,3-dioxoisoindolin-2-yl)-1H-1,2,3-triazol-1-yl)bicyclo[3.1.0]hexan-6-yl)propyl)benzamide] | > 5000 nM | > 5000 nM |
| CCC(NC(=O)c1ccc(Cl)cc1)[C@H]1[C@@H]2C[C@@H](n3cccc4ncnc3-4)C[C@@H]21 (stereo partly drawn) [Compound 182, N-(1-((1R,3s,5S,6r)-3-(4H-imidazo[4,5-b]pyridin-4-yl)bicyclo[3.1.0]hexan-6-yl)propyl)-4-chlorobenzamide] | > 5000 nM | 200 to 2000 nM |
| CCC(NC(=O)c1ccc(Cl)cc1)[C@H]1[C@@H]2C[C@@H](n3cc4cccnc4n3)C[C@@H]21 (stereo partly drawn) [Compound 211, N-(1-((1R,3s,5S,6r)-3-(2H-pyrazolo[3,4-b]pyridin-2-yl)bicyclo[3.1.0]hexan-6-yl)propyl)-4-chlorobenzamide] | < 500 nM | < 200 nM |

Other lines, results leading:

| IC50 [1] | IC50 [2] | SMILES |
| --- | --- | --- |
| 500 to 2000 nM | < 200 nM | CCC(NC(=O)c1ccc(Cl)cc1)[C@H]1[C@@H]2C[C@@H](Nc3ccc(F)cn3)C[C@@H]21 (stereo partly drawn) [Compound 227, 4-chloro-N-(1-((R, 3s, 5S, 6r)-3-((5-fluoropyridin-2-yl)amino)bicyclo[3.1.0]hexan-6-yl)propyl)benzamide] |
| 500 to 2000 nM | < 200 nM | CCC(NC(=O)c1ccc(Cl)cc1)[C@H]1[C@@H]2C[C@@H](NC(=O)N(C)c3ccccn3)C[C@@H]21 (stereo partly drawn) [Compound 189, 4-chloro-N-(1-((1R,3s, 5S, 6r)-3-(3-methyl-3-(pyridin-2-yl)ureido)bicyclo[3.1.0]hexan-6-yl)propyl)benzamide] |
| < 500 nM | < 200 nM | CCC(NC(=O)c1ccc(Cl)cc1)[C@H]1[C@@H]2C[C@@H](n3cc4c(F)cccc4n3)C[C@@H]21 (stereo partly drawn) [Compound 209, 4-chloro-N-(1-((1R,3s,5S,6r)-3-(4-fluoro-2H-indazol-2-yl)bicyclo[3.1.0]hexan-6-yl)propyl)benzamide] |
| 500 to 2000 nM | 200 to 2000 nM | CCC(NC(=O)c1ccc(Cl)cc1)[C@H]1[C@@H]2C[C@@H](Nc3cc(F)cc(F)c3[N+](=O)[O-])C[C@@H]21 (stereo partly drawn) [Compound 243, 4-chloro-N-(1-((1R,3s,5S,6r)-3-((3,5-difluoro-2-nitrophenyl)amino)bicyclo[3.1.0]hexan-6-yl)propyl)benzamide] |
| 2000 to 5000 nM | < 200 nM | CCC(NC(=O)c1ccc(Cl)cc1)[C@H]1[C@@H]2C[C@@H](NC(=O)c3ccccn3)C[C@@H]21 (stereo partly drawn) [Compound 117, N-((1R,3s,5S,6r)-6-(1-(4-chlorobenzamido)propyl)bicyclo[3.1.0]hexan-3-yl)picolinamide] |
| < 500 nM | < 200 nM | CCC(NC(=O)c1ccc(Cl)cc1)[C@H]1[C@@H]2C[C@H](NC(=O)c3ccc(F)cn3)C[C@@H]21 (stereo partly drawn) [Compound 221, N-((1R,3r,5S,6r)-6-(1-(4-chlorobenzamido)propyl)bicyclo[3.1.0]hexan-3-yl)-5-fluoropicolinamide] |
| 500 to 2000 nM | < 200 nM | CCC(NC(=O)c1ccc(Cl)cc1)[C@H]1[C@@H]2C[C@@H](NC(=O)c3ncccc3Cl)C[C@@H]21 (stereo partly drawn) [Compound 218, 3-chloro-N-((1R,3s,5S,6r)-6-(1-(4-chlorobenzamido)propyl)bicyclo[3.1.0]hexan-3-yl)picolinamide] |
| 500 to 2000 nM | < 200 nM | CCC(NC(=O)c1ccc(Cl)cc1)[C@H]1[C@@H]2C[C@@H](n3ncc4cccnc43)C[C@@H]21 (stereo partly drawn) [Compound 212, N-(1-((1R,3s,5S,6r)-3-(1H-pyrazolo[3,4-b]pyridin-1-yl)bicyclo[3.1.0]hexan-6-yl)propyl)-4-chlorobenzamide] |
| 500 to 2000 nM | < 200 nM | CCC(NC(=O)c1ccc(Cl)cc1)[C@H]1[C@@H]2C[C@@H](NC(=O)c3ncccc3F)C[C@@H]21 (stereo partly drawn) [Compound 188, N-((1R,3s,5S,6r)-6-(1-(4-chlorobenzamido)propyl)bicyclo[3.1.0]hexan-3-yl)-3-fluoropicolinamide] |
| < 500 nM | < 200 nM | CCC(NC(=O)c1ccc(Cl)cc1)[C@H]1[C@@H]2C[C@@H](n3ccc4cc(F)ccc43)C[C@@H]21 (stereo partly drawn) [Compound 229, 4-chloro-N-(1-((1R,3s,5S,6r)-3-(5-fluoro-1H-indol-1-yl)bicyclo[3.1.0]hexan-6-yl)propyl)benzamide] |
| 500 to 2000 nM | < 200 nM | CCC(NC(=O)c1ccc(Cl)cc1)[C@H]1[C@@H]2C[C@@H](n3ncc4c(F)cccc43)C[C@@H]21 (stereo partly drawn) [Compound 210, 4-chloro-N-(1-((1R,3s,5S,6r)-3-(4-fluoro-1H-indazol-1-yl)bicyclo[3.1.0]hexan-6-yl)propyl)benzamide] |
